Measured values: patent US20080227813A1, “Pharmaceutical compositions and methods for treating diseases associated with neurodegeneration” (priority 2006, published 2008)
Where two headings read alike, the source gives them in different places.

How the values were obtained:
[1] = dog, in vivo, po
Protocol: Four animals of both sexes/groups were used, except the control and high dose group where the groups were completed with 2 recovery animals in both sexes.
The check of mortality and the clinical observations were performed twice daily, the weighing of non-consumed food was done daily. The body weight of the animals was measured once a week. The urine, hematological, clinical chemical and ECG investigations were performed before the first treatment day and at termination of the treatment and at the end of the recovery period. The blood samples for kinetic analysis were taken in the 2nd and in the 104th, 110th and 111th treatment days. The opthalmoscopic examinations were performed prior to the treatment, at termination of the treatment and at the end of the recovery period. Terminally gross necropsy and histopathological examinations were performed in all animals.

CRL:(WI)BR rats = experiment: Acute oral toxicity in rats; type: in vivo; settings: rat
Protocol: All animal toxicology studies were performed at Toxicological Research Centre (Veszprém, Hungary) using protocols compliant with OECD guidelines and Principles of Good Laboratory Practice. Following is a summary of the studies conducted.
Acute oral toxicity studies were performed in rats (CRL(WI:)BR) and in mice (CRL: NMRI BR). A control and five dose groups were involved in the rat study at dose levels of 2000 mg/kg, 2600 mg/kg, 3400 mg/kg, 4400 mg/kg and 5700 mg/kg (equal to 1241 mg/kg, 1613 mg/kg, […], 2729 mg/kg and 3535 mg/kg free base, n=5 animals/sex/group).

CRL:NMRI BR mice = experiment: Acute intravenous toxicity in mice; type: in vivo; settings: mouse
Protocol: A control and five dose groups were involved in the mouse study, at dose levels of 200 mg/kg, 250 mg/kg, 300 mg/kg, 360 mg/kg and 450 mg/kg (equal to […], 155 mg/kg, 186 mg/kg, 223 mg/kg and 279 mg/kg free base, n=5 animals/sex/group).

[2] = dog, in vivo
[3] = human, in vivo

SMILES: [O-][n+]1cccc(/C(Cl)=N/OC[C@H](O)CN2CCCCC2)c1 [Compound I, N-[2-hydroxy-3-(1-piperidinyl)-propoxy]-pyridine-1-oxide-3-carboximidoyl chloride]
- AUCtot ([1]; 50 mg/kg/day): 40220 ng·h/mL
- Cmax ([1]; 50 mg/kg/day): 10840 ng/mL
- MRT ([1]; 50 mg/kg/day): 3.78 h
- Tmax ([1]; 50 mg/kg/day): 1.78 h
- clearance ([1]; 50 mg/kg/day): 13 mL/min/kg
- t½ ([1]; 50 mg/kg/day): 1.89 h
- AUCtot ([1]; 80 mg/kg/day): 87010 ng·h/mL
- Cmax ([1]; 80 mg/kg/day): 22000 ng/mL
- MRT ([1]; 80 mg/kg/day): 4.04 h
- Tmax ([1]; 80 mg/kg/day): 1.88 h
- clearance ([1]; 80 mg/kg/day): 9.5 mL/min/kg
- t½ ([1]; 80 mg/kg/day): 2.10 h
- AUCtot ([1]; 160 mg/kg/day): 166390 ng·h/mL
- Cmax ([1]; 160 mg/kg/day): 37950 ng/mL
- MRT ([1]; 160 mg/kg/day): 4.57 h
- Tmax ([1]; 160 mg/kg/day): 1.94 h
- clearance ([1]; 160 mg/kg/day): 10.3 mL/min/kg
- t½ ([1]; 160 mg/kg/day): 2.44 h
- Oral LD50 value (CRL:(WI)BR rats; female, by base): 1977 - by base mg/kg
- Oral LD50 value (CRL:(WI)BR rats; female, by citrate): 3188 - by citrate mg/kg
- Oral LD50 value (CRL:(WI)BR rats; male, by base): 1754 (1425-2146) - by base mg/kg
- Oral LD50 value (CRL:(WI)BR rats; male, by citrate): 2828 (2297-3460) - by citrate mg/kg
- Intravenous LD50 value (CRL:NMRI BR mice; female, by base): 158 - by base mg/kg
- Intravenous LD50 value (CRL:NMRI BR mice; female, by citrate): 254 - by citrate mg/kg
- Intravenous LD50 value (CRL:NMRI BR mice; male, by base): 190 (164-223) by base mg/kg
- Intravenous LD50 value (CRL:NMRI BR mice; male, by citrate): 307 (265-359) by citrate mg/kg
- major elimination route [2]: eliminated with urine
- AUC of radioactivity relative to parent compound ([2]; iv): about 8 times
- central volume of distribution Vc ([2]; iv, 6.45 mg/kg): 1.50 ± 0.5 L/kg
- first apparent elimination half-life ([2]; iv, 6.45 mg/kg): 0.33 ± 0.51 h
- second apparent elimination half-life ([2]; iv, 6.45 mg/kg): 1.26 ± 0.20 h
- mean AUC of radioactivity relative to parent compound ([2]; po): about 10 times
- peak concentration of radioactivity relative to Compound I ([2]; po): 1.7 times
- radioactivity concentration at two weeks ([2]; po): 0.014±0.004 μgE/ml
- serum radioactivity at 12 h, share of peak ([2]; po): about 15%
- absorption half-life ([2]; po, 6.45 mg/kg): 0.38 h
- oral bioavailability ([2]; po, 6.45 mg/kg): 77%
- oral bioavailability of total radioactivity ([2]; po, 6.45 mg/kg): 104%
- peak concentration ([2]; po, 6.45 mg/kg): 0.94 ± 0.37 µg/mL
- start of absorption after dosing ([2]; po, 6.45 mg/kg): 15 to 120 min
- time of peak concentration ([2]; po, 6.45 mg/kg): 1 to 2 h
- route of removal [3]: mostly removed unchanged in urine
- Mean t1/2 values ([3]; po): 2.5 to 6.2 h
- Tmax values ([3]; po): 0.5 to 1.1 h
- t1/2 ([3]; po): 4 h
- AUC(0-t), GeoMean ([3]; po, 50 mg): 590 ng·h/mL
- AUC(0-t), Mean ([3]; po, 50 mg): 600 ng·h/mL
- AUC, GeoMean ([3]; po, 50 mg): 640 ng·h/mL
- AUC, Mean ([3]; po, 50 mg): 650 ng·h/mL
- Cmax, GeoMean ([3]; po, 50 mg): 160 ng/mL
- Cmax, Mean ([3]; po, 50 mg): 170 ng/mL
- MRT, GeoMean ([3]; po, 50 mg): 3.4 h
- MRT, Mean ([3]; po, 50 mg): 3.5 h
- Tmax, GeoMean ([3]; po, 50 mg): 0.82 h
- Tmax, Mean ([3]; po, 50 mg): 0.9 h
- t½, GeoMean ([3]; po, 50 mg): 3 h
- t½, Mean ([3]; po, 50 mg): 3.1 h
- AUC(0-t), GeoMean ([3]; po, 100 mg): 1400 ng·h/mL
- AUC(0-t), Mean ([3]; po, 100 mg): 1400 ng·h/mL
- AUC, GeoMean ([3]; po, 100 mg): 1600 ng·h/mL
- AUC, Mean ([3]; po, 100 mg): 1600 ng·h/mL
- Cmax, GeoMean ([3]; po, 100 mg): 390 ng/mL
- Cmax, Mean ([3]; po, 100 mg): 400 ng/mL
- MRT, GeoMean ([3]; po, 100 mg): 3.7 h
- MRT, Mean ([3]; po, 100 mg): 3.8 h
- Tmax, GeoMean ([3]; po, 100 mg): 1 h
- Tmax, Mean ([3]; po, 100 mg): 1.1 h
- t½, GeoMean ([3]; po, 100 mg): 3.5 h
- t½, Mean ([3]; po, 100 mg): 3.7 h
- AUC(0-t), GeoMean ([3]; po, 200 mg): 2700 ng·h/mL
- AUC(0-t), Mean ([3]; po, 200 mg): 2700 ng·h/mL
- AUC, GeoMean ([3]; po, 200 mg): 2800 ng·h/mL
- AUC, Mean ([3]; po, 200 mg): 2800 ng·h/mL
- Cmax, GeoMean ([3]; po, 200 mg): 890 ng/mL
- Cmax, Mean ([3]; po, 200 mg): 890 ng/mL
- MRT, GeoMean ([3]; po, 200 mg): 3.7 h
- MRT, Mean ([3]; po, 200 mg): 3.8 h
- Tmax, GeoMean ([3]; po, 200 mg): 0.82 h
- Tmax, Mean ([3]; po, 200 mg): 0.9 h
- t½, GeoMean ([3]; po, 200 mg): 3.1 h
- t½, Mean ([3]; po, 200 mg): 3.1 h
- AUC(0-t), GeoMean ([3]; po, 400 mg): 6200 ng·h/mL
- AUC(0-t), Mean ([3]; po, 400 mg): 6300 ng·h/mL
- AUC, GeoMean ([3]; po, 400 mg): 6300 ng·h/mL
- AUC, Mean ([3]; po, 400 mg): 6400 ng·h/mL
- Cmax, GeoMean ([3]; po, 400 mg): 1800 ng/mL
- Cmax, Mean ([3]; po, 400 mg): 1800 ng/mL
- MRT, GeoMean ([3]; po, 400 mg): 4.5 h
- MRT, Mean ([3]; po, 400 mg): 4.5 h
- Tmax, GeoMean ([3]; po, 400 mg): 0.82 h
- Tmax, Mean ([3]; po, 400 mg): 0.9 h
- t½, GeoMean ([3]; po, 400 mg): 4 h
- t½, Mean ([3]; po, 400 mg): 4.1 h
- AUC(0-t), GeoMean ([3]; po, 600 mg): 8900 ng·h/mL
- AUC(0-t), Mean ([3]; po, 600 mg): 9100 ng·h/mL
- AUC, GeoMean ([3]; po, 600 mg): 9000 ng·h/mL
- AUC, Mean ([3]; po, 600 mg): 9200 ng·h/mL
- Cmax, GeoMean ([3]; po, 600 mg): 2900 ng/mL
- Cmax, Mean ([3]; po, 600 mg): 3000 ng/mL
- MRT, GeoMean ([3]; po, 600 mg): 3.9 h
- MRT, Mean ([3]; po, 600 mg): 4 h
- Tmax, GeoMean ([3]; po, 600 mg): 0.5 h
- Tmax, Mean ([3]; po, 600 mg): 0.5 h
- t½, GeoMean ([3]; po, 600 mg): 4.2 h
- t½, Mean ([3]; po, 600 mg): 4.3 h
- AUC(0-t), GeoMean ([3]; po, 800 mg): 12000 ng·h/mL
- AUC(0-t), Mean ([3]; po, 800 mg): 12000 ng·h/mL
- AUC, GeoMean ([3]; po, 800 mg): 12000 ng·h/mL
- AUC, Mean ([3]; po, 800 mg): 12000 ng·h/mL
- Cmax, GeoMean ([3]; po, 800 mg): 3700 ng/mL
- Cmax, Mean ([3]; po, 800 mg): 3800 ng/mL
- MRT, GeoMean ([3]; po, 800 mg): 4.1 h
- MRT, Mean ([3]; po, 800 mg): 4.1 h
- Tmax, GeoMean ([3]; po, 800 mg): 0.76 h
- Tmax, Mean ([3]; po, 800 mg): 0.8 h
- t½, GeoMean ([3]; po, 800 mg): 3.4 h
- t½, Mean ([3]; po, 800 mg): 3.5 h
